The values below come from the RepoRT retention time repository (doi:10.1016/j.foodchem.2021.129757).

The structures appear in SMILES notation.

The first series is described as follows: RP, Waters ACQUITY UPLC BEH Shield RP18, 150 × 2.1 mm, 1.7 µm, 40 °C, 0.4 mL/min, estimated dead time 0.83 min; A: water + 0.1% formic acid, pH 3; B: acetonitrile + 0.1% formic acid, pH 3; gradient (min/%B) 0/0 30/50 31/100 37/100 37.1/0. The settings on record: stereoisomer not certain.
Regarding `O=C(O)C=Cc1ccccc1O` [o-Coumaric acid], the LC retention time was 12.7 min.

A short description of the next series: RP, Agilent ZORBAX RRHD Eclipse Plus C18, 50 × 2.1 mm, 1.8 µm, 30 °C, 0.4 mL/min, estimated dead time 0.28 min; A: water + 0.1% formic acid, pH 3; B: acetonitrile + 0.1% formic acid, pH 3; gradient (min/%B) 0/1 5/10 8/25 9.1/99 10/99 12/1. As to conditions: stereoisomer not certain.
For the compound `O=C(O)C1OC(Oc2c(-c3ccc(O)c(O)c3)oc3cc(O)cc(O)c3c2=O)C(O)C(O)C1O` (centres undefined) [Quercetin-3-O-glucuronide], the LC retention time is 7.9 min.

For `O=C(O)c1cc(O)ccc1O` [Gentisic acid], the LC retention time was 4.25 min.

Turning to `O=C(O)C=Cc1ccccc1` [Cinnamic acid-trans], the LC retention time is 9.09 min.

On to `O=C(O)c1cccc(O)c1` [3-Hydroxybenzoic acid], for which the LC retention time is 5.36 min.

In the case of `O=C(O)C=Cc1ccccc1O` [o-Coumaric acid], the LC retention time was 8.32 min.

The nature of a further series: RP, Agilent ZORBAX RRHD Eclipse Plus C18, 50 × 2.1 mm, 1.8 µm, 30 °C, 0.4 mL/min, estimated dead time 0.28 min; A: water + 0.1% formic acid, pH 3; B: acetonitrile + 0.1% formic acid, pH 3; gradient (min/%B) 0/1 5/10 8/25 9.1/99 10/99 12/99. The settings on record: stereoisomer not certain.
In the case of `O=C(O)C1OC(Oc2c(-c3ccc(O)c(O)c3)oc3cc(O)cc(O)c3c2=O)C(O)C(O)C1O` (centres undefined) [Quercetin-3-O-glucuronide], the LC retention time is 8.38 min.

Consider `O=C(O)c1cc(O)ccc1O` [Gentisic acid], for which the LC retention time is 2.82 min.

For the compound `O=C(O)c1cccc(O)c1` [3-Hydroxybenzoic acid], the LC retention time was 4.26 min.

Turning to `O=C(O)C=Cc1ccccc1O` [o-Coumaric acid], the LC retention time is 8.67 min.

A short description of another series: RP, Merck Supelco SUPELCOSIL LC-C18, 250 × 4.6 mm, 5 µm, 40 °C, 1 mL/min, estimated dead time 2.6 min; A: water + 0.1% trifluoroacetic acid, pH 2; B: acetonitrile + 0.1% trifluoroacetic acid, pH 2; gradient (min/%B) 0/5 45/35 47/75 49/35 50/5. The settings on record: stereoisomer not certain.
With `O=C(O)C1OC(Oc2c(-c3ccc(O)c(O)c3)oc3cc(O)cc(O)c3c2=O)C(O)C(O)C1O` (centres undefined) [Quercetin-3-O-glucuronide], the LC retention time is 26.2 min.

In the case of `O=C(O)c1cc(O)ccc1O` [Gentisic acid], the LC retention time is 12.5 min.

In the case of `O=C(O)C=Cc1ccccc1` [Cinnamic acid-trans], the LC retention time was 35.6 min.

Take `OCC1OC(Oc2cc3c(OC4OC(CO)C(O)C(O)C4O)cc(O)cc3[o+]c2-c2ccc(O)c(O)c2)C(O)C(O)C1O` (centres undefined) [Cyanidin-3,5-O-diglucoside]: the LC retention time was 16.4 min.

On to `COc1cc(-c2[o+]c3cc(O)cc(O)c3cc2OC2OC(CO)C(O)C(O)C2O)cc(O)c1O` (centres undefined) [Petunidin-3-O-glucoside], for which the LC retention time was 22.3 min.

In the case of `OCC1OC(Oc2cc3c(O)cc(O)cc3[o+]c2-c2ccc(O)cc2)C(O)C(O)C1O` (centres undefined) [Pelargonidin-3-O-glucoside], the LC retention time is 23.4 min.

Take `O=c1cc(-c2ccccc2)oc2cc(O)cc(O)c12` [Chrysin]: the LC retention time is 39.4 min.

As to `COc1cc(C(=O)O)cc(OC)c1O` [Syringic acid], the LC retention time was 15.5 min.

In the case of `O=C(C=Cc1ccc(O)c(O)c1)OC1C(O)CC(O)(C(=O)O)CC1O` (centres undefined) [Cryptochlorogenic acid], the LC retention time was 14.1 min.

Turning to `O=c1c(-c2ccc(O)cc2)coc2cc(O)ccc12` [Daidzein], the LC retention time is 34.6 min.

Regarding `O=c1cc(-c2ccc(O)cc2)oc2cc(O)cc(O)c12` [Apigenin], the LC retention time is 43.2 min.

As for `O=C(OC1Cc2c(O)cc(O)cc2OC1c1cc(O)c(O)c(O)c1)c1cc(O)c(O)c(O)c1` (single isomer, unassigned; (-)) [(-)-Epigallocatechin gallate], the LC retention time is 16.9 min.

`COc1cc(-c2[o+]c3cc(O)cc(O)c3cc2OC2OC(CO)C(O)C(O)C2O)ccc1O` (centres undefined) [Peonidin-3-O-glucoside]: the LC retention time was 24.8 min.

Take `O=C(O)C=Cc1ccccc1O` [o-Coumaric acid]: the LC retention time was 25.9 min.

In the case of `CC1OC(OCC2OC(Oc3cc4c(O)cc(=O)cc-4oc3-c3ccc(O)cc3)C(O)C(O)C2O)C(O)C(O)C1O` (centres undefined) [Pelargonidin-3-O-rutinoside], the LC retention time was 24.3 min.

For the compound `CC1OC(Oc2c(-c3ccc(O)c(O)c3)oc3cc(O)cc(O)c3c2=O)C(O)C(O)C1O` (centres undefined) [Quercitrin], the LC retention time is 29.4 min.

Turning to `O=C(C=Cc1ccc(O)c(O)c1)OC1CC(OC(=O)C=Cc2ccc(O)c(O)c2)(C(=O)O)CC(O)C1O` (centres undefined) [1,3-dicaffeoylquinic acid], the LC retention time was 19.1 min.

For `O=c1c(O)c(-c2ccc(O)c(O)c2)oc2cc(O)ccc12` [Fisetin], the LC retention time was 30.9 min.

The next series is described as follows: RP, Agilent InfinityLab Poroshell 120 EC-C18, 100 × 3 mm, 2.7 µm, 25 °C, 0.4 mL/min, estimated dead time 1.1 min; A: water + 0.1% formic acid, pH 3; B: acetonitrile + 0.1% formic acid, pH 3; gradient (min/%B) 0/5 10/25 20/40 24/90 25/90 26/5 30/5. The settings on record: stereoisomer not certain.
On to `O=C(O)c1cc(O)ccc1O` [Gentisic acid], for which the LC retention time was 5.44 min.

`O=c1cc(-c2ccccc2)oc2cc(O)cc(O)c12` [Chrysin]: the LC retention time was 22.2 min.

In the case of `COc1cc(C(=O)O)cc(OC)c1O` [Syringic acid], the LC retention time is 6.44 min.

On to `O=c1c(-c2ccc(O)cc2)coc2cc(O)ccc12` [Daidzein], for which the LC retention time is 12.9 min.

With `O=c1cc(-c2ccc(O)cc2)oc2cc(O)cc(O)c12` [Apigenin], the LC retention time is 16.3 min.

Regarding `O=C1CC(c2ccc(O)c(O)c2)Oc2cc(O)cc(O)c21` (centres undefined) [Eriodictyol], the LC retention time was 13.7 min.

A short description of the next series: RP, Phenomenex Synergi Hydro-RP, 250 × 2 mm, 4 µm, 25 °C, 0.2 mL/min, estimated dead time 2.5 min; A: water + 0.1% formic acid, pH 3; B: acetonitrile + 0.1% formic acid, pH 3; gradient (min/%B) 0/0.5 7/0.5 12/12.5 25/16.3 47/35 48/65 50/65 50.1/0.5. As to conditions: stereoisomer not certain.
In the case of `O=C(O)c1cc(O)ccc1O` [Gentisic acid], the LC retention time is 19.9 min.

As for `O=C(O)C=Cc1ccccc1` [Cinnamic acid-trans], the LC retention time was 46.7 min.

Consider `O=C(O)c1cccc(O)c1` [3-Hydroxybenzoic acid], for which the LC retention time is 22.7 min.

`COc1cc(C(=O)O)cc(OC)c1O` [Syringic acid]: the LC retention time was 23.1 min.

As for `O=C(O)C=Cc1ccccc1O` [o-Coumaric acid], the LC retention time was 37.5 min.

Turning to `CC1OC(Oc2c(-c3ccc(O)c(O)c3)oc3cc(O)cc(O)c3c2=O)C(O)C(O)C1O` (centres undefined) [Quercitrin], the LC retention time was 38.3 min.

A short description of a further series: RP, Waters Atlantis T3, 100 × 2.1 mm, 3 µm, 40 °C, 0.3 mL/min, estimated dead time 0.73 min; A: water + 0.1% trifluoroacetic acid, pH 2; B: acetonitrile + 0.1% trifluoroacetic acid, pH 2; gradient (min/%B) 0/10 1/10 6/40 7/50 8/50 14/70 16/80 20/10 25/10. The settings on record: stereoisomer not certain.
Regarding `O=C(O)c1cccc(O)c1` [3-Hydroxybenzoic acid], the LC retention time is 5.01 min.

With `COc1cc(C(=O)O)cc(OC)c1O` [Syringic acid], the LC retention time is 5.12 min.

In the case of `O=c1cc(-c2ccc(O)cc2)oc2cc(O)cc(O)c12` [Apigenin], the LC retention time is 10.1 min.

With `O=C(OC1Cc2c(O)cc(O)cc2OC1c1cc(O)c(O)c(O)c1)c1cc(O)c(O)c(O)c1` (single isomer, unassigned; (-)) [(-)-Epigallocatechin gallate], the LC retention time was 6.14 min.
